Consider twelve molecules from patent publication US8796305B2 (Bayer Pharma Aktiengesellschaft, priority 2012, dated 2014).

Structures are written as SMILES. Structures can show the parent of a compound that is named as a salt.

This experiment has as its target T1, recombinant guanylate cyclase reporter cell line (Rattus norvegicus, UniProt P19686+P20595).
T1 construct: expressed in transfected cells
T1 sequence (P20595 1-619): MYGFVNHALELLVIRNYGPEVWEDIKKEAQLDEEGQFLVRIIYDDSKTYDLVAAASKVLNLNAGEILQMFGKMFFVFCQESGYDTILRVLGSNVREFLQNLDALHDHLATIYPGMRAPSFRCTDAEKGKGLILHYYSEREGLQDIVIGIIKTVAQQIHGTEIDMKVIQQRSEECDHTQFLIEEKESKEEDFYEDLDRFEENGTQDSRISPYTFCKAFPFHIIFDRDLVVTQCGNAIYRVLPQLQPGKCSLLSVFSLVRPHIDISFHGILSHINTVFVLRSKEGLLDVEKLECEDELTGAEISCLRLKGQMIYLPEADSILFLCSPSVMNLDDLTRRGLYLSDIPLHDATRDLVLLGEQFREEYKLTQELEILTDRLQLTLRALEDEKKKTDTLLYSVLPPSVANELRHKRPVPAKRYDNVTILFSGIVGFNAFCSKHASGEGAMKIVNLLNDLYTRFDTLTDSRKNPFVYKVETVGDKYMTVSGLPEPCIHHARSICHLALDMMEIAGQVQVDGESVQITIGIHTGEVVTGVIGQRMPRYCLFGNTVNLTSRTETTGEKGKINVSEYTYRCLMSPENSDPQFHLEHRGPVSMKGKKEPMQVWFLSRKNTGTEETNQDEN
T1 sequence (P19686 1-690): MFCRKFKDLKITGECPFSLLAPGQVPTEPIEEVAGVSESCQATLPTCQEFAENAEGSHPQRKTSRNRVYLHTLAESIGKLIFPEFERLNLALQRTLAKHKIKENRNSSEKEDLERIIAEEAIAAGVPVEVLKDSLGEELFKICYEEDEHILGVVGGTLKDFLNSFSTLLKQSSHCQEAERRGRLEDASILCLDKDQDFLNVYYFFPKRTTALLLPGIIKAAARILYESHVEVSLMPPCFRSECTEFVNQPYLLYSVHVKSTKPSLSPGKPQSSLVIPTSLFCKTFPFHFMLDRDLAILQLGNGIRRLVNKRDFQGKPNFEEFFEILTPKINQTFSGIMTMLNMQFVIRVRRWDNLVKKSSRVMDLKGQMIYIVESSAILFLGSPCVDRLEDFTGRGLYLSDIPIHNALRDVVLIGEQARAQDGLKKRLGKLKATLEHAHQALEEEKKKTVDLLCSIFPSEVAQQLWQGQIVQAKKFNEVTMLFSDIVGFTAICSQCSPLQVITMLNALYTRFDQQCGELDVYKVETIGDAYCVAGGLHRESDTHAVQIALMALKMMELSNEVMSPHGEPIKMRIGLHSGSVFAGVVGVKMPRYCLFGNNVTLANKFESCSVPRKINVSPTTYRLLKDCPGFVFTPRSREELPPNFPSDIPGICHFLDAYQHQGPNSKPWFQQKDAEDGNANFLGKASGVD
As to the kind of experiment: Action on recombinant guanylate cyclase reporter cell line. The settings on record: representative MEC values. It is filed as cell-based. The method, then: B-2. Action on Recombinant Guanylate Cyclase Reporter Cell Line
The cellular action of the compounds according to the invention is determined on a recombinant guanylate cyclase reporter cell line, as described in F. Wunder et al., Anal. Biochem. 339, 104-112 (2005).
Representative MEC values (MEC=minimal effective concentration) for the compounds according to the invention are shown in the following table: […]
In the case of `COC(=O)CCCCCCCNC(=O)c1c(C)nc2c(OCC3CCCCC3)cccn12` [Example 16], the “MEC (minimal effective concentration)” value amounted to 0.3 µM.

As to `CCCC[C@H](NC(=O)c1c(C)nc2c(OCc3c(F)cccc3F)cccn12)C(=O)O` [Example 23, N-({8-[(2,6-Difluorobenzyl)oxy]-2-methylimidazo[1,2-a]pyridin-3-yl}carbonyl)norleucine hydrochloride], the “MEC (minimal effective concentration)” value was 2.0 µM. `COC(=O)CCNC(=O)c1c(C)nc2c(OCc3c(F)cccc3F)cccn12` [Example 7, Methyl N-({8-[(2,6-difluorobenzyl)oxy]-2-methylimidazo[1,2-a]pyridin-3-yl}carbonyl)-beta-alaninate]: the “MEC (minimal effective concentration)” value stood at 1.0 µM. Turning to `COC(=O)C(CCCC(F)(F)F)NC(=O)c1c(C)nc2c(OCc3c(F)ccc(F)c3F)cc(C)cn12` (racemic) [Example 14, rac-Methyl N-({2,6-dimethyl-8-[(2,3,6-trifluorobenzyl)oxy]imidazo[1,2-a]pyridin-3-yl}carbonyl)-6,6,6-trifluoronorleucinate], the “MEC (minimal effective concentration)” value was 0.3 µM. For `CCCCC(NC(=O)c1c(C)nc2c(OCc3c(F)cccc3F)cccn12)C(=O)OC` (single isomer, unassigned; enantiomer b) [Example 19, ent-Methyl N-({8-[(2,6-difluorobenzyl)oxy]-2-methylimidazo[1,2-a]pyridin-3-yl}carbonyl)-norleucinate (Enantiomer B)] the value was 1.0 µM.

As for `Cc1nc2c(OCC3CCCCC3)cccn2c1C(=O)NCCCCCC(=O)O` [Example 22, 6-({[8-(Cyclohexylmethoxy)-2-methylimidazo[1,2-a]pyridin-3-yl]carbonyl}amino)hexanoic acid], the “MEC (minimal effective concentration)” value turned out to be 0.3 µM. For `COC(=O)C(CC(F)(F)F)NC(=O)c1c(C)nc2c(OCc3c(F)cccc3F)cccn12` (racemic) [Example 9, rac-Methyl 2-[({8-[(2,6-difluorobenzyl)oxy]-2-methylimidazo[1,2-a]pyridin-3-yl}carbonyl)amino]-4,4,4-trifluorobutanoate] the value was 3.0 µM; for `COC(=O)CC(NC(=O)c1c(C)nc2c(OCc3c(F)cccc3F)cccn12)C(F)(F)F` (racemic) [Example 17, rac-Methyl 3-[({8-[(2,6-difluorobenzyl)oxy]-2-methylimidazo[1,2-a]pyridin-3-yl}carbonyl)-amino]-4,4,4-trifluorobutanoate], 1.0 µM; for `COC(=O)C(NC(=O)c1c(C)nc2c(OCc3c(F)cccc3F)cccn12)c1ccc(Cl)cc1` (racemic) [Example 2, rac-Methyl (4-chlorophenyl)[({8-[(2,6-difluorobenzyl)oxy]-2-methylimidazo[1,2-a]pyridin-3-yl}carbonyl)amino]acetate], 0.3 µM. Take `Cc1nc2c(OCc3c(F)cccc3F)cccn2c1C(=O)N[C@@H]1CCOC1=O` [Example 3, 8-[(2,6-Difluorobenzyl)oxy]-2-methyl-N-[(3R)-2-oxotetrahydrofuran-3-yl]imidazo[1,2-a]pyridine-3-carboxamide]: the “MEC (minimal effective concentration)” value came to 0.3 µM. For `CCCCC(NC(=O)c1c(C)nc2c(OCc3c(F)cccc3F)cccn12)C(=O)OC` (racemic) [Example 8, rac-Methyl N-({8-[(2,6-difluorobenzyl)oxy]-2-methylimidazo[1,2-a]pyridin-3-yl}carbonyl)norleucinate], the “MEC (minimal effective concentration)” value worked out at 1.0 µM. Consider `COC(=O)C(CCC(F)(F)F)NC(=O)c1c(C)nc2c(OCc3c(F)cccc3F)cccn12` (racemic) [Example 10, rac-Methyl N-({8-[(2,6-difluorobenzyl)oxy]-2-methylimidazo[1,2-a]pyridin-3-yl}carbonyl)-5,5,5-trifluoronorvalinate], for which the “MEC (minimal effective concentration)” value is 1.0 µM.
